This note sets out measurements from patent US12077503B2, “Substituted cyclic amides and their use as herbicides” (FMC CORPORATION, priority 2015, dated 2024).

Where two headings read alike, the source gives them in different places.

What all share (type): in vivo
Experiment [1] concerns Kochia (Kochia scoparia). The experiment in a line: Test A preemergence. Particulars: Bassia scoparia, pre-emergence, 240 h; for pest or weed control at 125 g/ha: 125 g ai/ha, Preemergence, visual injury rating after approximately 10 d, read-out: Kochia plant response rating (0 to 100 scale, 0 is no effect, 100 is complete control); for pest or weed control at 500 g/ha: 500 g ai/ha, preemergence, visual injury rating about 10 d after treatment, 0 to 100 scale (0 no effect, 100 complete control), read-out: Kochia plant response rating. Put shortly:
(§1)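 Each rating is a visual injury score from 0 to 100 given about 10 d after treatment, judged against untreated controls kept alongside in the greenhouse. In loam soil–sand blend, seeds got a preemergence directed soil spray, while postemergence plants were 2 to 10 cm tall at spraying.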

Experiment [2] concerns barnyardgrass (Echinochloa crus-galli). In words: Test A preemergence. Particulars: Echinochloa crus-galli, pre-emergence, 240 h; for pest or weed control at 125 g/ha: 125 g ai/ha, Preemergence, visual injury rating after approximately 10 d, read-out: Barnyardgrass plant response rating (0 to 100 scale, 0 is no effect, 100 is complete control); for pest or weed control at 500 g/ha: 500 g ai/ha, preemergence, visual injury rating about 10 d after treatment, 0 to 100 scale (0 no effect, 100 complete control), read-out: Barnyardgrass plant response rating. Put shortly: as §1

Experiment [3] has as its system giant foxtail (Setaria faberii). In words: Test A preemergence. Particulars: Setaria faberi, pre-emergence, 240 h; for pest or weed control at 125 g/ha: 125 g ai/ha, Preemergence, visual injury rating after approximately 10 d, read-out: Foxtail, Giant plant response rating (0 to 100 scale, 0 is no effect, 100 is complete control); for pest or weed control at 500 g/ha: 500 g ai/ha, preemergence, visual injury rating about 10 d after treatment, 0 to 100 scale (0 no effect, 100 complete control), read-out: Foxtail, Giant plant response rating. Put shortly:
as §1

In experiment [4] the test system is pigweed (Amaranthus retroflexus). In words: Test A preemergence. Particulars: Amaranthus retroflexus, pre-emergence, 240 h; for pest or weed control at 125 g/ha: 125 g ai/ha, Preemergence, visual injury rating after approximately 10 d, read-out: Pigweed plant response rating (0 to 100 scale, 0 is no effect, 100 is complete control); for pest or weed control at 500 g/ha: 500 g ai/ha, preemergence, visual injury rating about 10 d after treatment, 0 to 100 scale (0 no effect, 100 complete control), read-out: Pigweed plant response rating.

In experiment [5] the test system is ragweed (common ragweed, Ambrosia elatior). The experiment in a line: Test A preemergence. Particulars: Ambrosia artemisiifolia, pre-emergence, 240 h; for pest or weed control at 125 g/ha: 125 g ai/ha, Preemergence, visual injury rating after approximately 10 d, read-out: Ragweed plant response rating (0 to 100 scale, 0 is no effect, 100 is complete control); for pest or weed control at 500 g/ha: 500 g ai/ha, preemergence, visual injury rating about 10 d after treatment, 0 to 100 scale (0 no effect, 100 complete control), read-out: Ragweed plant response rating. Put shortly:
as §1

Experiment [6] has as its system ryegrass, Italian (Italian ryegrass, Lolium multiflorum). The experiment in a line: Test A preemergence. Particulars: Lolium multiflorum, pre-emergence, 240 h; for pest or weed control at 125 g/ha: 125 g ai/ha, Preemergence, visual injury rating after approximately 10 d, read-out: Ryegrass, Italian plant response rating (0 to 100 scale, 0 is no effect, 100 is complete control); for pest or weed control at 500 g/ha: 500 g ai/ha, preemergence, visual injury rating about 10 d after treatment, 0 to 100 scale (0 no effect, 100 complete control), read-out: Ryegrass, Italian plant response rating. Put shortly:
as §1

The subject of experiment [7] is Galium (catchweed bedstraw, Galium aparine). The experiment in a line: Test A postemergence. Particulars: Galium, post-emergence, 240 h; for pest or weed control at 125 g/ha: 125 g ai/ha. The gist of the method:
as §1

Experiment [8] deals with Kochia (Kochia scoparia). The experiment in a line: Test A postemergence. Particulars: Bassia scoparia, post-emergence, 240 h; for pest or weed control at 125 g/ha: 125 g ai/ha. The gist of the method: as §1
In experiment [9] the test system is barnyardgrass (Echinochloa crus-galli). The experiment in a line: Test A postemergence. Particulars: Echinochloa crus-galli, post-emergence, 240 h; for pest or weed control at 125 g/ha: 125 g ai/ha. The gist of the method:
as §1

Experiment [10] concerns blackgrass (Alopecurus myosuroides). The experiment in a line: Test A postemergence. Particulars: Alopecurus myosuroides, post-emergence, 240 h; for pest or weed control at 125 g/ha: 125 g ai/ha. The gist of the method:
as §1

For the next experiment, the system named is corn (Zea mays). In words: Test A postemergence. Particulars: Zea mays, post-emergence, 240 h. The gist of the method: as §1
The subject of experiment [11] is giant foxtail (Setaria faberii). In words: Test A postemergence. Particulars: Setaria faberi, post-emergence, 240 h; for pest or weed control at 125 g/ha: 125 g ai/ha. The gist of the method:
as §1

Experiment [12] deals with ragweed (common ragweed, Ambrosia elatior). The experiment in a line: Test A postemergence. Particulars: Ambrosia artemisiifolia, post-emergence, 240 h, 125 g ai/ha. The gist of the method: as §1
Experiment [13] has as its system ryegrass, Italian (Italian ryegrass, Lolium multiflorum). The experiment in a line: Test A postemergence. Particulars: Lolium multiflorum, post-emergence, 240 h, 125 g ai/ha. Put shortly: as §1
Experiment [14] relates to wheat (Triticum aestivum). In words: Test A postemergence. Particulars: Triticum aestivum, post-emergence, 240 h, 125 g ai/ha. Put shortly: as §1

As to `O=C1NC[C@H](c2ccc3c(c2)CCC3)[C@H]1C(=O)Nc1ccccc1F` [Compound 1045], the pest or weed control at 125 g/ha with Kochia (Kochia scoparia) [1] worked out at 0%; in experiment [2], 90%; in experiment [3], 80%; in [4], 0%; in experiment [5] it was 0%; in [6], 30%. Further, the pest or weed control at 125 g/ha in [7] (postemergence, visual injury on 0 to 100 scale (0 no effect, 100 complete control), approx. 10 d, read-out: Galium plant response rating) came to 40%; with Kochia (Kochia scoparia) [8] (postemergence, visual injury on 0 to 100 scale (0 no effect, 100 complete control), approx. 10 d, read-out: Kochia plant response rating), 0%; in experiment [9] (postemergence, visual injury on 0 to 100 scale (0 no effect, 100 complete control), approx. 10 d, read-out: Barnyardgrass plant response rating), 90%; in [10] (postemergence, visual injury on 0 to 100 scale (0 no effect, 100 complete control), approx. 10 d, read-out: Blackgrass plant response rating), 40%; in experiment [11] (postemergence, visual injury on 0 to 100 scale (0 no effect, 100 complete control), approx. 10 d, read-out: Foxtail, Giant plant response rating), 60%; in experiment [12] (postemergence, visual injury on 0 to 100 scale (0 no effect, 100 complete control), approx. 10 d, read-out: Ragweed plant response rating), 30%. Moreover, the pest or weed control at 125 g/ha in experiment [13] (postemergence, visual injury on 0 to 100 scale (0 no effect, 100 complete control), approx. 10 d, read-out: Ryegrass, Italian plant response rating) is 50%. The pest or weed control at 500 g/ha with Kochia (Kochia scoparia) [1] is 20%; in [2], 90%; in experiment [3] it was 90%; in experiment [4], 0%; in experiment [5], 30%; in experiment [6], 70%. The pest or weed control at 500 g/ha in experiment [7] (500 g ai/ha, postemergence, visual injury, 0 to 100 scale (0 no effect, 100 complete control), approx. 10 d, read-out: Plant response rating, Galium) is 50%; in the experiment on Kochia (Kochia scoparia) [8] (500 g ai/ha, postemergence, visual injury, 0 to 100 scale (0 no effect, 100 complete control), approx. 10 d, read-out: Plant response rating, Kochia) it was 0%; in [9] (500 g ai/ha, postemergence, visual injury, 0 to 100 scale (0 no effect, 100 complete control), approx. 10 d, read-out: Plant response rating, Barnyardgrass), 90%; in experiment [10] (500 g ai/ha, postemergence, visual injury, 0 to 100 scale (0 no effect, 100 complete control), approx. 10 d, read-out: Plant response rating, Blackgrass), 60%; in experiment [11] (500 g ai/ha, postemergence, visual injury, 0 to 100 scale (0 no effect, 100 complete control), approx. 10 d, read-out: Plant response rating, Foxtail, Giant), 90%. For the same compound, the plant injury at 125 g/ha with corn (Zea mays) (125 g ai/ha, postemergence, visual injury on 0 to 100 scale (0 no effect, 100 complete control), approx. 10 d, read-out: Corn plant response rating) worked out at 20%; in experiment [14] (postemergence, visual injury on 0 to 100 scale (0 no effect, 100 complete control), approx. 10 d, read-out: Wheat plant response rating), 20%. The same compound returned a Corn plant response rating (crop injury, 0 = no effect, 100 = complete kill) at 500 g/ha in the experiment on corn (Zea mays) (500 g ai/ha, postemergence, visual injury, 0 to 100 scale (0 no effect, 100 complete control), approx. 10 d) of 40%.

As for `CC(C)Oc1ccc([C@H]2CN(C)C(=O)[C@@H]2C(=O)Nc2ccc(F)cc2F)cc1` [Compound 954], the pest or weed control at 125 g/ha turned out to be 0% in the experiment with Kochia (Kochia scoparia) [1]; 70% in experiment [2]; 90% in experiment [3]; 0% in [4]; 0% in [5]; 0% in experiment [6]. In addition, the pest or weed control at 125 g/ha amounted to 0% in experiment [7] (Postemergence, visual injury after approximately 10 d, 0 to 100 scale where 0 is no effect and 100 is complete control, read-out: Plant response rating, Galium); 0% in the experiment on Kochia (Kochia scoparia) [8] (Postemergence, visual injury after approximately 10 d, 0 to 100 scale where 0 is no effect and 100 is complete control, read-out: Plant response rating, Kochia); 60% in experiment [9] (Postemergence, visual injury after approximately 10 d, 0 to 100 scale where 0 is no effect and 100 is complete control, read-out: Plant response rating, Barnyardgrass); 0% in experiment [10] (Postemergence, visual injury after approximately 10 d, 0 to 100 scale where 0 is no effect and 100 is complete control, read-out: Plant response rating, Blackgrass); 60% in experiment [11] (Postemergence, visual injury after approximately 10 d, 0 to 100 scale where 0 is no effect and 100 is complete control, read-out: Plant response rating, Foxtail, Giant); 0% in [12] (Postemergence, visual injury after approximately 10 d, 0 to 100 scale where 0 is no effect and 100 is complete control, read-out: Plant response rating, Ragweed). Further, the pest or weed control at 125 g/ha in experiment [13] (Postemergence, visual injury after approximately 10 d, 0 to 100 scale where 0 is no effect and 100 is complete control, read-out: Plant response rating, Ryegrass, Italian) was 0%. Also, the pest or weed control at 500 g/ha with Kochia (Kochia scoparia) [1] is 20%; in experiment [2] it was 90%; in experiment [3], 90%; in experiment [4], 0%; in [5], 0%; in experiment [6] it was 0%. Also, in the experiment with corn (Zea mays) (125 g ai/ha, Postemergence, visual injury after approximately 10 d, 0 to 100 scale where 0 is no effect and 100 is complete control), the Corn plant response rating (crop injury, 0 = no effect, 100 = complete kill) at 125 g/ha is 0%. Also, the plant injury at 125 g/ha in [14] (Postemergence, visual injury after approximately 10 d, 0 to 100 scale where 0 is no effect and 100 is complete control, read-out: Plant response rating, Wheat) amounted to 0%.
